Measurements from patent publication US11542282B2, “Low affinity poly(AD-ribose) polymerase 1 dependent cytotoxic agents” (THE TRUSTEES OF THE UNIVERSITY OF PENNSYLVANIA, priority 2018, dated 2023).

Assays:
PARP-1 = PARP-1 (Homo sapiens, UniProt P09874); assay: PARP-1 radioligand binding in live OVCAR8 cells ([125I]KX1 competition); conditions: for IC50: radioligand binding in OVCAR8 cells
Protocol: (§1) Cells were cultured using standard techniques at 37° C. with 5% CO2 and 15% 02. […] Genetically engineered PARP-1 and PARP-2 double knockout mouse embryonic fibroblast (MEF) were used for cell viability studies with wildtype control. All cells were cultured in RPMI 1640 with 10% FBS and 1% penicillin/streptomycin.
The affinity of each compound for the PARP-1 enzyme was evaluated using a radioligand binding method described in Makvandi, A radiotracer strategy to quantify PARP-1 expression in vivo provides a biomarker that can enable patient selection for PARP inhibitor therapy. Cancer Research 2016. Briefly, OVCAR8 ovarian cancer cells were seeded in 96-well Stripwell plates at a density of 40,000 cells/well 24 hrs prior to the study. On the day of study, compounds were diluted in RPMI to concentrations of 100 μM-0.064 nM. […] Reactions were allowed to equilibrate for 1 hr and were then washed with 200 μL of PBS. Wells were separated and counted on an automatic Wizard gamma counter (Perkin Elmer, Waltham Mass.). […] Experiments were repeated three times with adjusting dose concentrations to increase accuracy of IC50 values.
Compounds 10-17 were evaluated for PARP-1 inhibition using a radioligand binding assay protocol with BRCA1 methylated ovarian cancer cells (OVCAR8) as described above. See, Table 3. […] Compared to 1a, oxaazaspiro analogue 1b performed slightly better with scaffold 10b displaying a PARP-1 binding value of 24.9 nM.

OVCAR8 cells = assay: Cell viability / cytotoxicity assay in OVCAR8 cells (CellTiter Glo); format: cell-based; conditions: Homo sapiens, OVCAR-8, Table 4
Protocol: as §1
(§2) Cell viability assays were carried out using four cell lines including OVCAR8, MEF wt, MEF PARP-1 (−/−) KO, and MEF PARP-2 (−/−) KO as described in Makvandi cited above. Briefly, cells were seeded in black wall clear bottom 96-well plates at concentrations of 1,000 cells/well. After 24 h, cells were then treated with concentrations from 100-0.016 μM. Cells were incubated with compounds for 4-7 days and then assayed for cell viability using the luminescent based assay, CellTiter Glo (Promega, Waltham Mass.). Plates were read on an Enspire multimode plate reader (Perkin Elmer). Data was normalized to percent survival at each concentration evaluated by diving the luminescent signal in treated wells vs. the average of vehicle controls. Experiments were repeated three times and all compounds were assayed during each experiment.
Cytotoxicity was then examined in OVCAR8 cells at 1, 10 and 100 μm concentrations as described above. See, FIGS. 1A-1C.
EC50 values of compounds 18-103 were obtained using OVCAR8 cells. See, Table 4.

[1] = system: MEF PARP-2 (-/-) KO cells; assay: Cell viability assay in MEF PARP-2 KO-/- cells; format: cell-based, mouse; conditions: NA = Not applicable, no cell death observed
Protocol: (§3) Genetically engineered PARP-1 and PARP-2 double knockout mouse embryonic fibroblast (MEF) were used for cell viability studies with wildtype control.
as §2, with “After 24 h, cells were then treated with concentrations from 100-0.016 μM. Cells were incubated with compounds for 4-7 days and then assayed for cell viability using the luminescent based assay, CellTiter Glo (Promega, Waltham Mass.).” left out
(§4) This isogenic model was selected due to the highly conserved nature of the PARP catalytic domain, all-owing investigation in enzyme specificity.
The cell cytotoxicity profile of these selected compounds in MEF PARP-2 KO−/− cell lines was then analyzed as described above.

MEF WT cells = assay: Cell viability assay in MEF WT cells; format: cell-based, mouse; conditions: NA = Not applicable, no cell death observed
Protocol: as §3
as §2, with “After 24 h, cells were then treated with concentrations from 100-0.016 μM. Cells were incubated with compounds for 4-7 days and then assayed for cell viability using the luminescent based assay, CellTiter Glo (Promega, Waltham Mass.).” left out
as §4

Chain of PARP-1 (P09874 whole entry): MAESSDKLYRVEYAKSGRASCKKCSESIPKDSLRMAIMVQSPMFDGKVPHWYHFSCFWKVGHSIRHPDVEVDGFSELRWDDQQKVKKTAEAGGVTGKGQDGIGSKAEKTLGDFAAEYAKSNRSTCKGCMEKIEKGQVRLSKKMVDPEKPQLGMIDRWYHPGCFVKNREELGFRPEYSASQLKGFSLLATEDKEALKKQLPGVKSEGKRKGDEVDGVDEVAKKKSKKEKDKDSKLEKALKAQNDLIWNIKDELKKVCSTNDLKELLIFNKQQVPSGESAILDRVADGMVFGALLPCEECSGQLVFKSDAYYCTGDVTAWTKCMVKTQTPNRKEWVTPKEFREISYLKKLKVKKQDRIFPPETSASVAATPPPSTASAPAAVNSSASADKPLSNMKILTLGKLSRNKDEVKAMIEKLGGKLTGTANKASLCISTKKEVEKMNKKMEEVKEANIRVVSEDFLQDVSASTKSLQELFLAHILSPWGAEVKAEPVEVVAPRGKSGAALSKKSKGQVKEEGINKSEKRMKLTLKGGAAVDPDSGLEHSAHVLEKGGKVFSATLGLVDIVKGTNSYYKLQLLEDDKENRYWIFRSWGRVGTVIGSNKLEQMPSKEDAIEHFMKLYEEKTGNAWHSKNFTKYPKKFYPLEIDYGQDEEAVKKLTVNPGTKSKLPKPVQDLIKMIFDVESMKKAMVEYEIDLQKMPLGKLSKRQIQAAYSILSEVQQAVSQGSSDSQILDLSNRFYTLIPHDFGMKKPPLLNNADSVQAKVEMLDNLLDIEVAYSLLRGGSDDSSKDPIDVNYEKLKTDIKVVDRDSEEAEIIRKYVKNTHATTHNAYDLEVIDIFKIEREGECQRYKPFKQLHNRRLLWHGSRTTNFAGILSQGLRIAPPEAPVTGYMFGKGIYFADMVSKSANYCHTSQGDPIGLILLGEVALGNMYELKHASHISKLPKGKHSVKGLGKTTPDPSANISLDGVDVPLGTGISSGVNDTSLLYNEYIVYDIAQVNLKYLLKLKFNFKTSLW

Structure (SMILES) | EC50 (PARP-1) [µM] | EC50 (OVCAR8 cells) [µM] | EC50 ([1]; Mus musculus) [µM] | EC50 (MEF WT cells; Mus musculus) [µM] | also measured
COC1CCC(NC(=O)c2cc(Cc3n[nH]c(=O)c4ccccc34)ccc2F)C1 (stereo not drawn) [Compound 21] | 0.0496 ± 0.0011 | 17 ± 1.2 |  |  | 
O=C(c1cc(Cc2n[nH]c(=O)c3ccccc23)ccc1F)N1CC[C@@H](OCCF)C1 [Compound 28, (R)-4-(4-fluoro-3-(3-(2-fluoroethoxy)pyrrolidine-1-carbonyl)benzyl)phthalazin-1(2H)-one] | 0.0101 ± 0.0011 | 30.9 ± 1.2 |  |  | 
O=C(c1cc(Cc2n[nH]c(=O)c3ccccc23)ccc1F)N1CC2(CCC2)C1 [Compound 10a, 4-(4-Fluoro-3-(2-azaspiro[3.3]heptane-2-carbonyl)benzyl)phthalazin-1(2H)-one] | 0.0339 ± 0.0015 |  | 49 | 48.3 | 
CC(C)(C)OC(=O)N1CCC2(CC1)CCN2C(=O)c1cc(Cc2n[nH]c(=O)c3ccccc23)ccc1F [Compound 13b, Tert-butyl 1-(2-fluoro-5-((4-oxo-3,4-dihydrophthalazin-1-yl)methyl)benzoyl)-1,7-diazaspiro[3.5]nonane-7-carboxylate] | 2.97 |  | 33.2 | ~23 | EC50 (MEF WT cells): 23.3 µM
O=C(c1cc(Cc2n[nH]c(=O)c3ccccc23)ccc1F)N1CCC12CCCCC2 [Compound 13a, 4-(4-Fluoro-3-(1-azaspiro[3.5]nonane-1-carbonyl)benzyl)phthalazin-(2H)-one] | 0.284 ± 0.0012 |  | 78.8 | 32.6 | 
O=C(c1ccc(F)cc1)N1CC2(C1)CN(C(=O)c1cc(Cc3n[nH]c(=O)c4ccccc34)ccc1F)C2 [46 (X = F)] | 0.0218 | 36 |  |  | 
O=C(c1cc(Cc2n[nH]c(=O)c3ccccc23)ccc1F)N1CC[C@H](OCCF)C1 [Compound 29, (S)-4-(4-fluoro-3-(3-(2-fluoroethoxy)pyrrolidine-1-carbonyl)benzyl)phthalazin-1(2H)-one] | 0.00688 | 56.6 |  |  | 
O=C(c1cc(Cc2n[nH]c(=O)c3ccccc23)ccc1F)N1CC(OCCF)C1 [Compound 26, 4-(4-fluoro-3-(3-(2-fluoroethoxy)azetidine-1-carbonyl)benzyl)phthalazin-1(2H)-one] | 0.00754 ± 0.0011 | 74.1 ± 1.3 |  |  | 
COC1CCC(NC(=O)c2cc(Cc3n[nH]c(=O)c4ccccc34)ccc2F)CC1 (stereo not drawn) [Compound 22] | 0.2263 ± 0.0011 | 16.2 ± 1.2 |  |  | 
O=C(C1CC1)N1CC2(CCN2C(=O)c2cc(Cc3n[nH]c(=O)c4ccccc34)ccc2F)C1 [Compound 11d, 4-(3-(6-(Cyclopropanecarbonyl)-1,6-diazaspiro[3.3]heptane-1-carbonyl)-4-fluorobenzyl)phthalazin-1(2H)-one] |  |  | 46.7 | 53.2 | 
CO[C@H]1C[C@H](NC(=O)c2cc(Cc3n[nH]c(=O)c4ccccc34)ccc2F)C1 [Compound 20] |  | 72.2 |  |  | 
O=C(c1cc(Cc2n[nH]c(=O)c3ccccc23)ccc1F)N1CCCC(OCCF)CC1 (stereo not drawn) [Compound 33, 4-(4-fluoro-3-(4-(2-fluoroethoxy)azepane-1-carbonyl)benzyl)phthalazin-1(2H)-one] | 0.00562 ± 0.0011 | 11.3 ± 1.3 |  |  | 
O=C(c1cc(Cc2n[nH]c(=O)c3ccccc23)ccc1F)N1CCC2(CCCCC2)CC1 [Compound 17a, 4-(4-Fluoro-3-(3-azaspiro[5.5]undecane-3-carbonyl)benzyl)phthalazin-1(2H)-one] | 0.0571 ± 0.0012 |  | 41.3 | 41.3 | 
COC1CCCN(C(=O)c2cc(Cc3n[nH]c(=O)c4ccccc34)ccc2F)CC1 (stereo not drawn) [Compound 25] | 0.00474 ± 0.0011 | 20.2 ± 1.3 |  |  | 
CC(C)(C)OC(=O)N1CC2(C1)CN(C(=O)c1cc(Cc3n[nH]c(=O)c4ccccc34)ccc1F)C2 [Compound 10c, Tert-butyl 6-(2-fluoro-5-((4-oxo-3,4-dihydrophthalazin-1-yl)methyl)benzoyl)-2,6-diazaspiro[3.3]heptane-2-carboxylate] | 0.552 |  | 24.7 | 31.1 | fold lower PARP-1 affinity compared to the methylene congener (PARP-1; 10c vs 10a, 15b vs 15a): ~16 fold; IC50 (PARP-1): 0.552 µM
O=C(c1cc(Cc2n[nH]c(=O)c3ccccc23)ccc1F)N1CC2(C1)CN(c1ccc(F)cc1)C2 [Compound 40, 4-(4-fluoro-3-(6-(4-fluorophenyl)-2,6-diazaspiro[3.3]heptane-2-carbonyl)benzyl)phthalazin-1(2H)-one] | 0.000376 | 12 |  |  | 
O=C(C1CC1)N1CCC2(CC1)CCN2C(=O)c1cc(Cc2n[nH]c(=O)c3ccccc23)ccc1F [Compound 13d, 4-(3-(7-(Cyclopropanecarbonyl)-1,7-diazaspiro[3.5]nonane-1-carbonyl)-4-fluorobenzyl)phthalazin-1(2H)-one] | 0.431 |  | 44.4 | 47.5 | 
O=C(c1cc(Cc2n[nH]c(=O)c3ccccc23)ccc1F)N1CCC2(CCCC2)C1 [Compound 15a, 4-(4-Fluoro-3-(2-azaspiro[4.4]nonane-2-carbonyl)benzyl)phthalazin-1(2H)-one] | 0.0514 ± 0.0011 |  | 55.5 | 31.7 | 
CC(C)(C)OC(=O)N1CC2(CCN(C(=O)c3cc(Cc4n[nH]c(=O)c5ccccc45)ccc3F)C2)C1 [Compound 14b] | 1.19 |  | 31.8 | 29.2 | 
CO[C@H]1C[C@@H](NC(=O)c2cc(Cc3n[nH]c(=O)c4ccccc34)ccc2F)C1 [Compound 19] | 0.0208 ± 0.0011 | 17.1 ± 1.2 |  |  | 
O=C(c1cc(Cc2n[nH]c(=O)c3ccccc23)ccc1F)N1CCC2(CCC2)C1 [Compound 14a, 4-(4-Fluoro-3-(6-azaspiro[3.4]octane-6-carbonyl)benzyl)phthalazin-1(2H)-one] | 0.0324 ± 0.0011 |  | 54.7 | 45.2 | 
O=C(c1cc(Cc2n[nH]c(=O)c3ccccc23)ccc1F)N1CC2(COC2)C1 [Compound 10b, 4-(4-Fluoro-3-(2-oxa-6-azaspiro[3.3]heptane-6-carbonyl)benzyl)phthalazin-1(2H)-one] | 0.0249 |  | 53.3 | 52.2 | IC50 (PARP-1): 0.0249 µM
O=C(c1cc(Cc2n[nH]c(=O)c3ccccc23)ccc1F)N1CC2(CCN(C(=O)C3CC3)CC2)C1 [Compound 12d, 4-(3-(7-(Cyclopropanecarbonyl)-2,7-diazaspiro[3.5]nonane-2-carbonyl)-4-fluorobenzyl)phthalazin-1(2H)-one] | 0.1 |  | 57.2 | 49.3 | 
COC1CN(C(=O)c2cc(Cc3n[nH]c(=O)c4ccccc34)ccc2F)C1 [Compound 23] | 0.00827 ± 0.0011 | 71.5 ± 1.2 |  |  | 
O=C(c1cc(Cc2n[nH]c(=O)c3ccccc23)ccc1F)N1CCC12CCC2 [Compound 11a, 4-(4-Fluoro-3-(I-azaspiro[3.3]heptane-1-carbonyl)benzyl)phthalazin-1(2H)-one] |  |  |  |  | EC50 [1]: 58.3 µM; EC50 (MEF WT cells): 48 µM
O=C(c1cc(Cc2n[nH]c(=O)c3ccccc23)ccc1F)N1CCC2(CCN(C(=O)C3CC3)CC2)C1 [Compound 16d, 4-(3-(8-(Cyclopropanecarbonyl)-2,8-diazaspiro[4.5]decane-2-carbonyl)-4-fluorobenzyl)phthalazin-1(2H)-one] | 0.225 |  | 61 | 41.6 | 
CC(C)(C)OC(=O)N1CC2(CCN2C(=O)c2cc(Cc3n[nH]c(=O)c4ccccc34)ccc2F)C1 [Compound 11b, Tert-butyl 1-(2-fluoro-5-((4-oxo-3,4-dihydrophthalazin-1-yl)methyl)benzoyl)-1,6-diazaspiro[3.3]heptane-6-carboxylate] |  |  | 35.8 | 42.9 | 
O=C(c1cc(Cc2n[nH]c(=O)c3ccccc23)ccc1F)N1CC2(C1)CN(C(=O)C1CC1)C2 [Compound 10e, 4-(3-(6-(Cyclopropanecarbonyl)-2,6-diazaspiro[3.3]heptane-2-carbonyl)-4-fluorobenzyl)phthalazin-1(2H)-one] | 0.0126 |  | 59.8 |  | IC50 (PARP-1): 0.0126 µM
